The results in this text go back to patent US9976141B2, “Compositions and methods for inhibiting gene expression of Hif2alpha” (Arrowhead Madison Inc., priority 2015, dated 2018).

Data set [1] deals with human (tumor) Hif2α (EPAS1) mRNA. The data set can be described thus: HiF2α RNAi trigger/sunitinib combination study: HiF2α expression in RCC tumors (Table 10A). Particulars: 4 doses, 3 cycles. The data set is classed as in vivo.
Description: Female athymic nude mice were anesthetized with ˜3% isoflourane and placed in the right lateral decubitus position. A small, 0.5-1 cm, longitudinally abdominal incision in the left flank was made. Using a moist cotton swab, the left kidney was lifted out of the peritoneum and gently stabilized. Just before injection, a 1.0 ml syringe was filled with the cell/Matrigel mixture and a 27 gauge needle catheter was attached to the syringe tip. The filled syringe was then attached to a syringe pump (Harvard Apparatus, model PHD2000) and primed to remove air. The tip of a 27-gauge needle catheter attached to a syringe was inserted just below the renal capsule near the caudal pole and the tip of the needle was then carefully advanced cranially along the capsule 3-4 mm. […]
In preparation for quantitative PCR, total RNA was isolated from tissue samples homogenized in TriReagent (Molecular Research Center, Cincinnati, Ohio) following the manufacturer's protocol. […] Quantitative PCR was performed by using a 7500 Fast or StepOnePlus Real-Time PCR system (Life Technologies). […]
Tumor growth rates were evaluated by serum SEAP collected at 5-7 days interval during treatment. Tumor weight and volume was determined at necropsy. Gross tumor morphology and H&E histopathology were evaluated.
Data set [2] deals with A498-SEAP ccRCC orthotopic kidney tumor. In words: HiF2α RNAi trigger/sunitinib combination study: tumor size and SEAP expression (Table 10B). The data set is classed as in vivo, mice. As to conditions: trigger = Duplex AD1884 with polymer 064 (125 μg polymer) iv every 4 weeks, 4 doses, sunitinib oral gavage, 3 cycles.
Data set [3] relates to human EPAS1 (Hif2α) cDNA in psiCHECK2 (Renilla luciferase/EPAS1 fusion mRNA) in Hep3B cells. In words: Hif2α RNAi trigger EC50 determination, dual-luciferase reporter assay. It is filed as cell-based. Particulars: UNA modified at site 6 or 7, EPAS1-psiCHECK2, same conditions, read-out: EC50 UNAs EC50. The source says:
Candidate sequences were identified by in silico analysis and screened as chemically modified canonical siRNAs in vitro. For screening purposes, the human EPAS1 (Hif2α) cDNA sequence (accession #NM 001430) was synthesized and cloned (DNA 2.0, Menlo Park, Calif.) into a commercially-available reporter-based screening plasmid, psiCHECK2 (Promega, Madison, Wis.) which generated a Renilla luciferase/EPAS1 fusion mRNA. For RNAi trigger efficacy evaluation, Hep3B cells, a human hepatocellular carcinoma line, were plated at 10,000 cells per well in 96-well format. Each of the 187 EPAS1 RNAi triggers, in two subsets, was co-transfected at two concentrations, 1 nM and 0.1 nM, with 25 ng EPAS1-psiCHECK2 plasmid DNA per well and 0.2 μL LipoFectamine 2000 (Life Technologies) per well. Gene knockdown was determined by measuring Renilla luciferase levels normalized to the levels of constitutively-expressed firefly luciferase, also present on the psiCHECK-2 plasmid, using the Dual Luciferase Reporter Assay (Promega, Madison, Wis.) Table 5.
The eight best canonical sequences were further evaluated by determining the EC50 concentration. Each trigger was assessed for knockdown under the same conditions and assays as above, but at 10 different concentrations ranging from 0.00051 nM to 10 nM. EC50 were determined using GraphPad Prism software. Each of the top five canonical sequences were modified to contain UNA at sites 6 and 7. These triggers, along with their parent canonical sequences, were evaluated side-by-side for EC50 concentration determination using the same conditions and assays as above, Table 6.

Strand notation (5' to 3'): a small letter for the sugar, then the base; units joined by * are phosphorothioate-linked, units joined directly phosphodiester-linked; [ ] holds rarer units or linkages, { } end groups; capitals alone tell only the bases. [UNA-N] = unlocked nucleic acid (N: the base); [invdT] = inverted (3'-3') thymidine; d = 2'-deoxy (DNA); m = 2'-O-methyl; f = 2'-fluoro

As to `CCN(CC)CCNC(=O)c1c(C)[nH]c(/C=C2\C(=O)Nc3ccc(F)cc32)c1C` [sunitinib, Sunitinib], the “Relative HiF2α expression levels decreased” value in data set [1] (DPC 125 μg polymer iv every 4 weeks, sunitinib oral gavage 5 days/week 2 weeks on, 2 weeks off) is given as 11.4%. For the same compound, in data set [1] (trigger = Duplex AD1884 with polymer 064 (125 μg polymer) iv every 4 weeks, sunitinib oral gavage 5 days/week, 2 weeks on/2 off), the “HiF2α expression, Relative expression” value amounted to 0.886. Also, in data set [2] (at necropsy), the Tumor volume is listed as 2113.5 ± 368 mm3 and the Tumor weight worked out at 2385.7 ± 845 mg. In addition, the “Fold increase in SEAP” value in data set [2] (serum SEAP, overall) amounted to 18.1 ± 9.8.

As a reminder, the EC50 is the concentration giving half of the maximal effect. Turning to “AD00988: Hif2α RNAi trigger, XD-02335 sequence modified to contain UNA at site 6 (antisense dTfGmUfAmA[UNA-A]mAfCmAfAmUfUmGfUmGfUmAfCmUdT*dT; sense fAmGfUmAfCmAfCmAfAmUfUmGfUmUfUmUfAmCfA[invdT])”, in data set [3], the EC50 came out at 0.841 nM.

With “AD00997: Hif2α RNAi trigger, XD-02415 sequence modified to contain UNA at site 7 (antisense dTfAmAfGmUfU[UNA-A]fAmGfCmUfCmCfCmAfUmAfCmAdT*dT; sense fUmGfUmAfUmGfGmGfAmGfCmUfUmAfAmCfUmUfA[invdT])”, in data set [3], the EC50 was 0.183 nM.
